The structures appear in SMILES notation.

T1 sequence (P51681 whole entry): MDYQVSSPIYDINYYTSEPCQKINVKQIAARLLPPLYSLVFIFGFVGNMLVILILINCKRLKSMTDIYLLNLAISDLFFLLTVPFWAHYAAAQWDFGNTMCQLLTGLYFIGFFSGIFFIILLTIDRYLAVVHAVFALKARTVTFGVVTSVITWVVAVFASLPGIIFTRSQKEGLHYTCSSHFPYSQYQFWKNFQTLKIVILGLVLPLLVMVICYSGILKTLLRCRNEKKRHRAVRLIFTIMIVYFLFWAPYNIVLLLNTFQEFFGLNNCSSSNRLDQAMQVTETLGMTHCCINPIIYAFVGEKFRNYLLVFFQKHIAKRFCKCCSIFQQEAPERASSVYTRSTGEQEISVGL

The assay has as its target T1, recombinant human CCR5 receptor (Homo sapiens, UniProt P51681).
T1 construct: expressed in transfected cells; host or cells: Chinese hamster ovary (CHO) cells; membranes
The experiment in a line: Radioligand binding assay for inhibition of the binding of MIP-1α. To be noted: displacement of 0.1 nM iodinated MIP-1α; membranes of Chinese hamster ovary cells expressing CCR5. Here is the method:
Biological Assay for the Ability of Compounds to Inhibit the Binding of MIP-1α This ability is assessed using an in vitro radioligand binding assay. Membranes are prepared from Chinese hamster ovary cells which express the recombinant human CCR5 receptor. These membranes are incubated with 0.1 nM iodinated MIP-1α, scintillation proximity beads and various concentrations of the compounds of the invention in 96-well plates. The amount of iodinated MIP-1α bound to the receptor is then determined by scintillation counting.
By IC50 is commonly meant the concentration that inhibits the measured activity by half. `CCCC(C)N1CCN[C@@H](C(=O)N2CCN(C(=O)Nc3ccc(Cl)c(Cl)c3)CC2)C1` (stereo partly drawn) [Example 270, N-(3,4-dichlorophenyl)-4-{[(2R)-4-(1-methylbutyl)piperazin-2-yl]carbonyl}piperazine-1-carboxamide]: the half-maximal inhibitory concentration (IC50) is under 10 µM.

Turning to `CCCC(C)N1CCOC(CN2CCN(C(=O)Nc3ccc(F)c(Cl)c3)CC2)C1` (stereo in doubt) [Example 237, N-(3-chloro-4-fluorophenyl)-4-({(2R)-4-[(1S)-1-methylbutyl]morpholin-2-yl}methyl)piperazine-1-carboxamide], the IC50 is under 10 µM.

Consider `Cc1ccc(NC(=O)N2CCN(C(=O)[C@H]3CN(C(C)C)CCN3)CC2)cc1F` [Example 218, N-(3-fluoro-4-methylphenyl)-4-{[(2R)-4-isopropylpiperazin-2-yl]carbonyl}piperazine-1-carboxamide], for which the IC50 is under 10 µM.

Take `Cc1cccnc1CN1CCC[C@@H](CN2CCN(C(=O)Nc3ccc(Cl)c(Cl)c3)CC2)C1` [Example 44, N-(3,4-dichlorophenyl)-4-({(3S)-1-[(3-methylpyridin-2-yl)methyl]piperidin-3-yl}methyl)piperazine-1-carboxamide]: the IC50 was under 10 µM.

Turning to `CC(C)N1CCN[C@@H](C(=O)N2CCN(C(=O)Nc3ccc(Cl)c(C(F)(F)F)c3)CC2)C1` [Example 213, N-[4-chloro-3-(trifluoromethyl)phenyl]-4-{[(2R)-4-isopropylpiperazin-2-yl]carbonyl}piperazine-1-carboxamide], the IC50 was under 10 µM.

As for `O=C(Nc1ccc(Cl)c(Cl)c1)N1CCN(C[C@@H]2CCCN(CCOc3ccc(F)cc3)C2)CC1` [Example 171, N-(3,4-Dichlorophenyl)-4-({(3S)-1-[2-(4-fluorophenoxy)ethyl]piperidin-3-yl}methyl)piperazine-1-carboxamide], the IC50 is under 10 µM.

As to `CCN1CCN[C@@H](C(=O)N2CCN(C(=O)Nc3cccc(Cl)c3)CC2)C1` [Example 132, N-(3-Chlorophenyl)-4-{[(2R)-4-ethylpiperazin-2-yl]carbonyl}piperazine-1-carboxamide], the IC50 was under 10 µM.

Consider `CC(C)N1CCN[C@@H](C(=O)N2CCN(C(=O)Nc3cccc(Cl)c3)CC2)C1` [Example 211, N-(3-chlorophenyl)-4-{[(2R)-4-isopropylpiperazin-2-yl]carbonyl}piperazine-1-carboxamide], for which the IC50 is under 10 µM.

Regarding `CC(C)N1CCN[C@@H](C(=O)N2CCN(C(=O)Nc3ncc(Cl)s3)CC2)C1` [Example 264, N-(5-Chloro-1,3-thiazol-2-yl)-4-{[(2R)-4-isopropylpiperazin-2-yl]carbonyl}piperazine-1-carboxamide], the concentration for half-maximal inhibition (IC50) was under 10 µM.

In the case of `C=C(C)CN1CCN[C@@H](C(=O)N2CCN(C(=O)Nc3ccc(Cl)c(Cl)c3)CC2)C1` [Example 304, N-(3,4-dichlorophenyl)-4-{[(2R)-4-(2-methylprop-2-en-1-yl)piperazin-2-yl]carbonyl}piperazine-1-carboxamide], the IC50 was under 10 µM.

As for `CC(C)N1CCN[C@@H](C(=O)N2CCN(C(=O)Nc3ccc(F)c(Cl)c3)CC2)C1` [Example 216], the IC50 is under 10 µM.

Consider `O=C(Nc1ccc(Cl)c(Cl)c1)N1CCN(C(=O)[C@H]2CN(C3CCOCC3)CCN2)CC1` [Example 221, N-(3,4-dichlorophenyl)-4-{[(2R)-4-(tetrahydro-2H-pyran-4-yl)piperazin-2-yl]carbonyl}piperazine-1-carboxamide], for which the IC50 was under 10 µM.

On to `O=C(Nc1ccc(Cl)c(Cl)c1)N1CCN(C[C@H]2CN(C3CCOCC3)CCO2)CC1` [Example 121, N-(3,4-dichlorophenyl)-4-{[(2S)-4-(tetrahydro-2H-pyran-4-yl)morpholin-2-yl]methyl}piperazine-1-carboxamide], for which the IC50 was under 10 µM.

On to `O=C(Nc1ccc(Cl)c(Cl)c1)N1CCN(C(=O)[C@H]2CN(CC3CC3)CCN2)CC1` [Example 268, 4-{[(2R)-4-(cyclopropylmethyl)piperazin-2-yl]carbonyl}-N-(3,4-dichlorophenyl)piperazine-1-carboxamide], for which the concentration for half-maximal inhibition (IC50) is under 10 µM.

For the molecule `O=C(Nc1ccccc1)N1CCN(C[C@@H]2CCCN(CCCc3ccccc3)C2)CC1` [Example 245, N-phenyl-4-[[(3R)-1-(3-phenylpropyl)-3-piperidyl]methyl]piperazine-1-carboxamide], the IC50 was under 10 µM.

Turning to `O=C(Nc1ccc(Cl)c(Cl)c1)N1CCN(C(=O)[C@H]2CN(C3CCC3)CCN2)CC1` [Example 275, 4-{[(2R)-4-Cyclobutylpiperazin-2-yl]carbonyl}-N-(3,4-dichlorophenyl)piperazine-1-carboxamide], the IC50 is under 10 µM.

For the molecule `Cc1ccc(NC(=O)N2CCN(C[C@@H]3CCCN(C4CC4)C3)CC2)cc1Cl` [Example 110, N-(3-chloro-4-methylphenyl)-4-{[(3S)-1-cyclopropylpiperidin-3-yl]methyl}piperazine-1-carboxamide], the IC50 was under 10 µM.

With `O=C(Nc1cccc(C(F)(F)F)c1)N1CCN(C[C@@H]2CCCN(C3CC3)C2)CC1` [Example 109, 4-{[(3S)-1-cyclopropylpiperidin-3-yl]methyl}-N-[3-(trifluoromethyl)phenyl]piperazine-1-carboxamide], the IC50 was under 10 µM.

As to `O=C(Nc1ccc(Cl)c(Cl)c1)N1CCN(C(=O)[C@H]2CN(C3CC3)CCN2)CC1` [Example 135, 4-[(2R)(4-Cyclopropylpiperazin-2-yl)carbonyl]-N-(3,4-dichlorophenyl)piperazine-1-carboxamide], the IC50 is under 10 µM.

As for `O=C(Nc1ccc(Cl)c(Cl)c1)N1CCN(C[C@H]2CN(C3CCC(O)CC3)CCO2)CC1` (stereo partly drawn) [Example 122, N-(3,4-dichlorophenyl)-4-{[(2S)-4-(4-hydroxycyclohexyl)morpholin-2-yl]methyl}piperazine-1-carboxamide], the IC50 is under 10 µM.

For `O=C(Nc1ccc(Cl)cc1)N1CCN(CC2CCCN(C3CC3)C2)CC1` (stereo in doubt) [Example 185, N-(4-chlorophenyl)-4-{[(3R)-1-(2-cyclopropyl)piperidin-3-yl]methyl}piperazine-1-carboxamide], the IC50 was under 10 µM.

As for `CN1CCN(C)C(CN2CCN(C(=O)Nc3ccc(Cl)c(Cl)c3)CC2)C1` (stereo not shown) [Example 209, 1-{[1,4-Dimethylpiperazin-3-yl]methyl}-N-(3,4-dichlorophenyl)piperazine-4-carboxamide], the IC50 was under 10 µM.

In the case of `N#C/N=C(\Nc1ccc(Cl)c(Cl)c1)N1CCN(C[C@@H]2CCCN(CCc3ccccc3)C2)CC1` [Example 79, N-cyano-N-(3,4-dichlorophenyl)-4-{[(3R)-1-(2-phenylethyl)piperidin-3-yl]methyl}piperazine-1-carboximidamide], the IC50 was under 10 µM.

With `CCN1CCC[C@@H](CN2CCN(C(=O)Nc3ccc(Cl)c(Cl)c3)CC2=O)C1` [Example 91, N-(3,4-dichlorophenyl)-4-{[(3R)-1-ethylpiperidin-3-yl]methyl}-3-oxopiperazine-1-carboxamide], the IC50 was under 10 µM.

As for `O=C(Nc1ccc(Cl)c(Cl)c1)N1CCN(C[C@H]2CN(C3CCC3)CCO2)CC1` [Example 115, 4-{[(2S)-4-cyclobutylmorpholin-2-yl]methyl}-N-(3,4-dichlorophenyl)piperazine-1-carboxamide], the half-maximal inhibitory concentration (IC50) is under 10 µM.

In the case of `CC(C)N1CCO[C@@H](CN2CCN(C(=O)Nc3cccs3)CC2)C1` [Example 188, 4-{[(2S)-4-isopropylmorpholin-2-yl]methyl}-N-2-thienylpiperazine-1-carboxamide], the half-maximal inhibitory concentration (IC50) was under 10 µM.

Consider `C[C@@H](Cc1ccc(F)cc1)N1CCO[C@@H](CN2CCN(C(=O)Nc3ccc(F)c(Cl)c3)CC2)C1` [Example 233, N-(3-chloro-4-fluorophenyl)-4-({(2S)-4-[(1S)-2-(4-fluorophenyl)-1-methylethyl]morpholin-2-yl}methyl)piperazine-1-carboxamide], for which the IC50 is under 10 µM.

For `CC(C)N1CCO[C@@H](CN2CCN(C(=O)Nc3ccc(C(F)(F)F)nc3)CC2)C1` [Example 192, 4-{[(2S)-4-isopropylmorpholin-2-yl]methyl}-N-[6-(trifluoromethyl)pyridin-3-yl]piperazine-1-carboxamide], the IC50 was under 10 µM.

Take `COc1ccc(CCN2CCC[C@@H](CN3CCN(C(=O)Nc4ccccc4)CC3)C2)cc1` [Example 250, 4-[[(3R)-1-[2-(4-methoxyphenyl)ethyl]-3-piperidyl]methyl]-N-phenyl-piperazine-1-carboxamide]: the IC50 was under 10 µM.

Regarding `O=C(Nc1ccc(Cl)c(Cl)c1)N1CCN(C(=O)C2CCN([C@H]3CC[C@](O)(c4ccccn4)CC3)C2)CC1` (stereo partly shown) [Example 146, N-(3,4-dichlorophenyl)-4-{[1-(4-hydroxy-4-pyridin-2-ylcyclohexyl)pyrrolidin-3-yl]carbonyl}piperazine-1-carboxamide], the IC50 was under 10 µM.

As for `CN1CCCC(CN2CCN(C(=O)Nc3ccccc3)CC2)C1` (stereo not shown) [Example 1, 4-[(1-methylpiperidin-3-yl)methyl]-N-phenylpiperazine-1-carboxamide], the IC50 is under 10 µM.

Take `O=C(Nc1ccc(Cl)c(Cl)c1)N1CCN(C(=O)C2CCN([C@H]3CC[C@](O)(c4ccncc4)CC3)C2)CC1` (stereo partly drawn) [Example 147, N-(3,4-dichlorophenyl)-4-{[1-(cis-4-hydroxy-4-pyridin-4-ylcyclohexyl)pyrrolidin-3-yl]carbonyl}piperazine-1-carboxamide]: the IC50 is under 10 µM.

With `Nc1ncccc1CN1CCCC(CN2CCN(C(=O)Nc3ccc(F)c(Cl)c3)CC2)C1` (stereo not shown) [Example 266, 4-({1-[(2-aminopyridin-3-yl)methyl]piperidin-3-yl}methyl)-N-(3-chloro-4-fluorophenyl)piperazine-1-carboxamide], the IC50 was under 10 µM.

`O=C(Nc1ccc(Cl)c(Cl)c1)N1CCN(C[C@@H]2CCCN(Cc3ccc(N4CCOCC4)nc3)C2)CC1` [Example 255, N-(3,4-dichlorophenyl)-4-[[(3R)-1-[(6-morpholin-4-ylpyridin-3-yl)methyl]-3-piperidyl]methyl]piperazine-1-carboxamide]: the IC50 is under 10 µM.

For the origin of these results see patent publication US8710224B2, “Heterocyclic compounds as CCR2B antagonists” (AstraZeneca AB, priority 2004, dated 2014).
